The source of these data is publication PMC12586182 (Frontiers in Oncology, 2025).

Test in all cases: Kinase panel profiling at 1 µmol/L (mobility shift assay, Carna)
Holding throughout (format): biochemical
Details in all cases: 1 µmol/L of BTK inhibitor

One experiment has as its target T1, MNK2 (Homo sapiens, UniProt Q9HBH9).
T1 construct: purchased Carna Biosciences

In a further experiment the target is T2, HER2 (Homo sapiens, UniProt P04626).
T2 construct: purchased Carna Biosciences

Another experiment addresses T3, DAPK1 (Homo sapiens, UniProt P53355).
T3 construct: purchased Carna Biosciences

The target in another experiment is T4, INSR (Homo sapiens, UniProt P06213).
T4 construct: purchased Carna Biosciences

For the next experiment, the target named is T5, TNK1 (Homo sapiens, UniProt Q13470).
T5 construct: purchased Carna Biosciences
T5 sequence (Q13470 1-666): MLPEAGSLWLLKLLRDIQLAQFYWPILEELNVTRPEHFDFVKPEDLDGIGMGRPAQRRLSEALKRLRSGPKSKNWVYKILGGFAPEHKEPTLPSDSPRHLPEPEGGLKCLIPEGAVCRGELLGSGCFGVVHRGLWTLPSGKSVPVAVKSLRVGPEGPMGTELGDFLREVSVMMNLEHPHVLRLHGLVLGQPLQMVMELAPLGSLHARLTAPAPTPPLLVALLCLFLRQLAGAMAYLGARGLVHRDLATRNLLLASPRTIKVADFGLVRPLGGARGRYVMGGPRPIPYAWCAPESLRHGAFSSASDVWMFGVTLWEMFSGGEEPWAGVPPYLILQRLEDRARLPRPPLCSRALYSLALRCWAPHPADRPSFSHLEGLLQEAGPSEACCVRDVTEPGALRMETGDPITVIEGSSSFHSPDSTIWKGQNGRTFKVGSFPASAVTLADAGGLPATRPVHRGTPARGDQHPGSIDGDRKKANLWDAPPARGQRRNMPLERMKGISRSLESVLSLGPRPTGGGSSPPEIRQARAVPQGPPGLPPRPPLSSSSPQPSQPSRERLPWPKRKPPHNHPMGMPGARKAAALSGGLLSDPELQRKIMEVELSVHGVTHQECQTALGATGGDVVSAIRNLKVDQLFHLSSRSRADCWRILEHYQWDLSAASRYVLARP

For the next experiment, the target named is T6, JNK1 (Homo sapiens, UniProt P45983).
T6 construct: purchased Carna Biosciences

A further experiment addresses T7, CDK6/CycD3 (Homo sapiens, UniProt Q00534).
T7 construct: purchased Carna Biosciences

The target of another experiment is T8, EPHA8 (Homo sapiens, UniProt P29322).
T8 construct: purchased Carna Biosciences
T8 sequence (P29322 28-1005): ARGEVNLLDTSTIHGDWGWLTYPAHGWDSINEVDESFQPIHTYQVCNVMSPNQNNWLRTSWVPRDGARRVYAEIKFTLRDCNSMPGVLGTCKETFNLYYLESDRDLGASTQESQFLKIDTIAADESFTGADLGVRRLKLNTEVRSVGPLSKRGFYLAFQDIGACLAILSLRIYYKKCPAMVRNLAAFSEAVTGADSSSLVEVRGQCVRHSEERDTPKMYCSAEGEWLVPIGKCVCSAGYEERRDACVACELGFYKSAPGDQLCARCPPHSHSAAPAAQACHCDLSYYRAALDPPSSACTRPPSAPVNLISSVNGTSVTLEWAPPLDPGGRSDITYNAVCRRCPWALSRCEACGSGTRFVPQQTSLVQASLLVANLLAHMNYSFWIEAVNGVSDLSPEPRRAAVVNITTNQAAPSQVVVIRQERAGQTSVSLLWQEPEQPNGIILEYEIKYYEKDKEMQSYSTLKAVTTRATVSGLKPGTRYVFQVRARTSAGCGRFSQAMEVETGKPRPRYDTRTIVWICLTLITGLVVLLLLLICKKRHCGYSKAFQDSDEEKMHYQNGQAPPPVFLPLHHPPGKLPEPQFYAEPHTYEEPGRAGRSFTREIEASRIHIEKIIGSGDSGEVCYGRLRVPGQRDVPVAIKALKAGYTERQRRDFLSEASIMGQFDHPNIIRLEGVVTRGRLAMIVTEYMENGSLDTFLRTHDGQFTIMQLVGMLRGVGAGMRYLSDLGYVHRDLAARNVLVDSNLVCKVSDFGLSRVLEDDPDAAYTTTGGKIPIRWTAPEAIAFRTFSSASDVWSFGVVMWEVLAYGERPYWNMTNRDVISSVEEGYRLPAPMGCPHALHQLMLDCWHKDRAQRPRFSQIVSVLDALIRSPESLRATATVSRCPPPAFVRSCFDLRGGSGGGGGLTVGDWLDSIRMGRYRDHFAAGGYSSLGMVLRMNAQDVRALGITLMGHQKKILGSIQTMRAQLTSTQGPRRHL

The target of another experiment is T9, RON (Homo sapiens, UniProt Q04912).
T9 construct: purchased Carna Biosciences

In a further experiment the target is T10, FER (Homo sapiens, UniProt P16591).
T10 construct: purchased Carna Biosciences
T10 sequence (P16591 whole entry): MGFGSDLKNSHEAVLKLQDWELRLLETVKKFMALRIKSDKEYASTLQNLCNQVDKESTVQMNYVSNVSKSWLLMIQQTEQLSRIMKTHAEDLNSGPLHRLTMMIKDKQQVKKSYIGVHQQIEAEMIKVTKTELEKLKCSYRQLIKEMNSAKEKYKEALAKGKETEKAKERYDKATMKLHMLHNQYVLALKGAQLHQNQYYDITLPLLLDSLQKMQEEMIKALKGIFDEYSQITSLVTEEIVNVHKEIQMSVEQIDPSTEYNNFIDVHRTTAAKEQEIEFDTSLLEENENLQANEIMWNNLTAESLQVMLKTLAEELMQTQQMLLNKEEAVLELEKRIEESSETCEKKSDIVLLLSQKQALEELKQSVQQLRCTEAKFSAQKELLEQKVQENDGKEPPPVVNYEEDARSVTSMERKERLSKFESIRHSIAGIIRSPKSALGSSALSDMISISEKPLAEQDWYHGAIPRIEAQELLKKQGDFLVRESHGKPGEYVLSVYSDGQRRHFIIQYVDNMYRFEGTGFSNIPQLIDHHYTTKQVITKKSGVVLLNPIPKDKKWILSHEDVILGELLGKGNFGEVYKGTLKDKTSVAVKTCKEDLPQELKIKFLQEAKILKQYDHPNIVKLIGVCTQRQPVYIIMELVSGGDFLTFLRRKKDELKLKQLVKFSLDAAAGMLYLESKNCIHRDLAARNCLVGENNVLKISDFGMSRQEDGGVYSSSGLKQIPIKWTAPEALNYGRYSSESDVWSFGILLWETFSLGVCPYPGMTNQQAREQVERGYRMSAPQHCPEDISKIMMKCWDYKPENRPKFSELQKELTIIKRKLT

For a further experiment, the target named is T11, MINK (Homo sapiens, UniProt Q8N4C8).
T11 construct: purchased Carna Biosciences
T11 sequence (Q8N4C8 whole entry): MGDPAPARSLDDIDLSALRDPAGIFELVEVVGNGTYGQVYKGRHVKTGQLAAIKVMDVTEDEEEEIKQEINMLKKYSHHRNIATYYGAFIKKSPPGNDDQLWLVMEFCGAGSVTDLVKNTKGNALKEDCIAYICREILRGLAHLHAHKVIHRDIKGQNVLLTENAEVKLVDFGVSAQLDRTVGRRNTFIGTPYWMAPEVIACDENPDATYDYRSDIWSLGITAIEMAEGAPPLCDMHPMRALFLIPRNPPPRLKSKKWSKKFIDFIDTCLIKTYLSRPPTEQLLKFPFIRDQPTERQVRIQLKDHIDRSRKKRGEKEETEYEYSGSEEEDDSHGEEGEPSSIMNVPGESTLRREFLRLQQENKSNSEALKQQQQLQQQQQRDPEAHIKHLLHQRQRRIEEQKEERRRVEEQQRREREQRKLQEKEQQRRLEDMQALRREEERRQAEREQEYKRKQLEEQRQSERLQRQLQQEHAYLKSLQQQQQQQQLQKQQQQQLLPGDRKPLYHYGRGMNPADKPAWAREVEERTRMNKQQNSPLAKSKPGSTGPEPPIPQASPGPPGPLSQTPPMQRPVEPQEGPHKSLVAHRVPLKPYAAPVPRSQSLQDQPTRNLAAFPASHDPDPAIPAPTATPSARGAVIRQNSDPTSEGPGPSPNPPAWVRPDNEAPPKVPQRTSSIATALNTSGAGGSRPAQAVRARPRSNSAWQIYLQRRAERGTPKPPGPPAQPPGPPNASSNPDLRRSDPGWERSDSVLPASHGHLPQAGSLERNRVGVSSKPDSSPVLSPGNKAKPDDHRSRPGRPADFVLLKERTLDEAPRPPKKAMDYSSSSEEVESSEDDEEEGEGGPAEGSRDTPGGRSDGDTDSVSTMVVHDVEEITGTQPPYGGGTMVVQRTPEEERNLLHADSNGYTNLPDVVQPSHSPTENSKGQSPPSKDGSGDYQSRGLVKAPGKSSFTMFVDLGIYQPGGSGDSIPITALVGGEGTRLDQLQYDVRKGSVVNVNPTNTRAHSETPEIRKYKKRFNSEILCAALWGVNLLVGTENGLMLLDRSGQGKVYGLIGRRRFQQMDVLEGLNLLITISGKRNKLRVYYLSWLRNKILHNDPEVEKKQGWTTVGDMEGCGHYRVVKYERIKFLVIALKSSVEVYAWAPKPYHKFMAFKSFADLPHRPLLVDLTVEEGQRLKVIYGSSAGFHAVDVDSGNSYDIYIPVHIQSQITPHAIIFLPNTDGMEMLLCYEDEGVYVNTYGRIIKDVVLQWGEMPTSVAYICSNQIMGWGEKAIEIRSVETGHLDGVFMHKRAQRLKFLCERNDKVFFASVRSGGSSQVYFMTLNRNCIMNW

The next experiment concerns the target T12, WNK2 (Homo sapiens, UniProt Q9Y3S1).
T12 construct: purchased Carna Biosciences

In the next experiment the target is T13, PLK1 (Homo sapiens, UniProt P53350).
T13 construct: purchased Carna Biosciences
T13 sequence (P53350 whole entry): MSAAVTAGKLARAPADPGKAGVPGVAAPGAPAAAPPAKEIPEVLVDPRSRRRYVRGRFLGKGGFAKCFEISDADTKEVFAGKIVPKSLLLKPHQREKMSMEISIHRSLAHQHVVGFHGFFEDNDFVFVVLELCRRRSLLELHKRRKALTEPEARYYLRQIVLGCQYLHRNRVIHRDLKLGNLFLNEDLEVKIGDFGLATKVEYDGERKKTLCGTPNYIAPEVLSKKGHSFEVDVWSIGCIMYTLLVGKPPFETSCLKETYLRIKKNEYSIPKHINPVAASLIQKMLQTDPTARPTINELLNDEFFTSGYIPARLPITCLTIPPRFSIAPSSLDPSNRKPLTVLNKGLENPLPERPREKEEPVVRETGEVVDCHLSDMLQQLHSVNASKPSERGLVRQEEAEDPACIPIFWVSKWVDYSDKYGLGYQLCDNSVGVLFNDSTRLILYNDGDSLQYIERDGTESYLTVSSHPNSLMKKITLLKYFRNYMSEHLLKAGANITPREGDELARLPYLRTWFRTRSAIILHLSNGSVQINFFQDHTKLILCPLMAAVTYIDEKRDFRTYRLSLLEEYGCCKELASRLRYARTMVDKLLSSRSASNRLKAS

The next experiment addresses T14, IRAK4 (Homo sapiens, UniProt Q9NWZ3).
T14 construct: purchased Carna Biosciences
T14 sequence (Q9NWZ3 1-460): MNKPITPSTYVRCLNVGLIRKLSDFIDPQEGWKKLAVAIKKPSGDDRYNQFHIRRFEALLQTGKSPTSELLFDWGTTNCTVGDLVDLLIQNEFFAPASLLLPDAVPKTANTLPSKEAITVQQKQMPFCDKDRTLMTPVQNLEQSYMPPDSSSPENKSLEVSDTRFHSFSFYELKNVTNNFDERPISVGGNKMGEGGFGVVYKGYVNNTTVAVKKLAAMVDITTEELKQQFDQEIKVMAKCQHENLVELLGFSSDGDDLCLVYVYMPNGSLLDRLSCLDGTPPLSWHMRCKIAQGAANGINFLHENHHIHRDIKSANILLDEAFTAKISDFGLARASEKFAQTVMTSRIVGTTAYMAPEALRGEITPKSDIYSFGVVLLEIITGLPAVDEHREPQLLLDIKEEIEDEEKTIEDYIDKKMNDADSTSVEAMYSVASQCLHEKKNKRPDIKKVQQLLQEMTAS

The structures appear in SMILES notation.

T7 sequence (Q00534 whole entry): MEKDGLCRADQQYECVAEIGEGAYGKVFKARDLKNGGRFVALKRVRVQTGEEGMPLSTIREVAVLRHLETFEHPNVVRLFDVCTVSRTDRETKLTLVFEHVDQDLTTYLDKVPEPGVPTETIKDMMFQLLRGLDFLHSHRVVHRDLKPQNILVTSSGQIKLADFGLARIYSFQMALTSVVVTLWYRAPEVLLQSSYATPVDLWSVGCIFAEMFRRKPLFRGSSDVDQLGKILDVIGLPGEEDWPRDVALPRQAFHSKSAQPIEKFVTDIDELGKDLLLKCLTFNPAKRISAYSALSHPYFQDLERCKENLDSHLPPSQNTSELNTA
T7 sequence (P30281 whole entry partner): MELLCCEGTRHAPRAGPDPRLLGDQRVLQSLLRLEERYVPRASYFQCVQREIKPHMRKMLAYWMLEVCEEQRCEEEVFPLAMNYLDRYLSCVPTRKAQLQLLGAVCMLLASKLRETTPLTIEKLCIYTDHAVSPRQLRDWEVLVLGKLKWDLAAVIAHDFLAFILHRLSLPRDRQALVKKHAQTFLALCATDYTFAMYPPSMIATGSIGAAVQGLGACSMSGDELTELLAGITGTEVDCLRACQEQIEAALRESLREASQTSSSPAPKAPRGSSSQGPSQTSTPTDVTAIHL
T1 sequence (Q9HBH9 whole entry): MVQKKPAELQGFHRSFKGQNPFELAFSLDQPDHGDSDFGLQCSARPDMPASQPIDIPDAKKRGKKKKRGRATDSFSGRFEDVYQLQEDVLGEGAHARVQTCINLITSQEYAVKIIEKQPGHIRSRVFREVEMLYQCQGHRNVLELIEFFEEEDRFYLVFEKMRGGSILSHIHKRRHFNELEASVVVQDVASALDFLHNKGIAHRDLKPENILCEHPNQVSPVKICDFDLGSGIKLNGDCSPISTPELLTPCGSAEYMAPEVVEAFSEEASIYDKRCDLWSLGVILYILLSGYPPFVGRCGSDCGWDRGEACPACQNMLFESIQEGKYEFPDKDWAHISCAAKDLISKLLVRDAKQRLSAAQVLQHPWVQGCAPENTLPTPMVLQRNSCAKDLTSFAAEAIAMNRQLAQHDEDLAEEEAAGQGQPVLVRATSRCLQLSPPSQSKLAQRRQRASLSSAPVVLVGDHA
T2 sequence (P04626 23-1255): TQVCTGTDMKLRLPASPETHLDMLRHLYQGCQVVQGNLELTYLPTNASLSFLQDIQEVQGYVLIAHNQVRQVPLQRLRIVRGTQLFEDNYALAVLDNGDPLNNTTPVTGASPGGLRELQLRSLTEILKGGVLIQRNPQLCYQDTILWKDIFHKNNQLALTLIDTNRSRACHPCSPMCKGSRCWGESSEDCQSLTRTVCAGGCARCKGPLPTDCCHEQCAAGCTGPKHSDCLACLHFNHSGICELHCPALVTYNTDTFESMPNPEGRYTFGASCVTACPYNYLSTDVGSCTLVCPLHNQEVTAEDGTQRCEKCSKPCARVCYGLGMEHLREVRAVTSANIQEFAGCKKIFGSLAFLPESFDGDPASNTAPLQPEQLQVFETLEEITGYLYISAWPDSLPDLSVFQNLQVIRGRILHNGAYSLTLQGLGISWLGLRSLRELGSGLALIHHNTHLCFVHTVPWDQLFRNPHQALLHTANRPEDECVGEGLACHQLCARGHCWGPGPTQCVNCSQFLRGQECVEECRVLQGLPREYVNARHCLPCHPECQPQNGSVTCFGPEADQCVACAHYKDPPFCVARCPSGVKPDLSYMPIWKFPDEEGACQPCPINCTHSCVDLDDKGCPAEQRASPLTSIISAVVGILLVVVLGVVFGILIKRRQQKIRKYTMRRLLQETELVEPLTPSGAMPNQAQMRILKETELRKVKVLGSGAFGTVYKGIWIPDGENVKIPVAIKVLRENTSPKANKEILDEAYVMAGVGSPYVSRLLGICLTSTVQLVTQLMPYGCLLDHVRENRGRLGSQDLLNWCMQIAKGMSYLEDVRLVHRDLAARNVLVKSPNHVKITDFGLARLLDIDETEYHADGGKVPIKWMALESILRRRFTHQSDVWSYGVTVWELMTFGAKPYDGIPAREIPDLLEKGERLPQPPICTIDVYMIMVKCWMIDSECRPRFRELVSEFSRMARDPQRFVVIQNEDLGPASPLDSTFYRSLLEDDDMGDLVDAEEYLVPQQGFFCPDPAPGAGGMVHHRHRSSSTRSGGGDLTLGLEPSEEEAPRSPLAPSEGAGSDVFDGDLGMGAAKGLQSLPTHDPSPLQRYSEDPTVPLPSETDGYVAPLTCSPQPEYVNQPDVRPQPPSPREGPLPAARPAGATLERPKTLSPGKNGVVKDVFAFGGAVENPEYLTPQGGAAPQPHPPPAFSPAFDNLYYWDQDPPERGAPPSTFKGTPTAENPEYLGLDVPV

Turning to `CC#CC(=O)N1CCC[C@H]1c1nc(-c2ccc(C(=O)Nc3ccccn3)cc2)c2c(N)nccn12` [acalabrutinib], the “Percentage inhibition of kinase enzyme activity” value (shortened to “Percentage inhibition”) on MNK2 is given as 12.37%; on HER2, 16.11%; on DAPK1, -17.45%; at INSR, -4.67%; at TNK1 it was -1.80%; at JNK1 it was -0.88%. Moreover, the “Percentage inhibition” value on CDK6/CycD3 is reported as 2.94%; on EPHA8, 6.51%; at RON, 7.68%; at FER, -2.54%; at MINK, -1.13%; at WNK2, 0.79%. Also, the entries for the “Percentage inhibition” value at PLK1 and at IRAK4 were -2.57% and -6.55%, respectively.

On to `C=CC(=O)N1CCC[C@@H](n2nc(-c3ccc(Oc4ccccc4)cc3)c3c(N)ncnc32)C1` [ibrutinib], for which the “Percentage inhibition” value at MNK2 is 19.75%; on HER2, 100.31%; at DAPK1, -3.80%; at INSR, 9.51%; at TNK1, 6.17%; on JNK1, -2.33%. The “Percentage inhibition” value at CDK6/CycD3 is reported as 4.32%; on EPHA8 it was 54.68%; at RON, 6.98%; at MINK, -6.41%; on WNK2, 5.67%; at PLK1, -2.28%. In addition, at IRAK4, the “Percentage inhibition” value is reported as -5.09%.

For `O=C(c1ccc(Oc2ccccc2)cc1Cl)c1c[nH]c2ncnc(N[C@@H]3CC[C@@H](CO)OC3)c12` [nemtabrutinib], the “Percentage inhibition” value at MNK2 was 56.12%; on HER2, 99.89%; on DAPK1, -7.44%; at INSR, 95.91%; at TNK1, 75.62%; at JNK1, -3.89%. Also, the “Percentage inhibition” value at CDK6/CycD3 turned out to be 0.23%; at EPHA8 it was 50.84%; on RON, 33.63%; at FER, 96.49%; at MINK, 46.67%; on WNK2 it was 47.36%. Also, the “Percentage inhibition” value was determined as 1.28% at PLK1 and 2.38% at IRAK4.

As for `COc1ccc(F)cc1C(=O)NCc1ccc(-c2nn([C@@H](C)C(F)(F)F)c(N)c2C(N)=O)cc1` [pirtobrutinib], the “Percentage inhibition” value at MNK2 is on record as 7.34%; on HER2 it was 35.83%; at DAPK1, -0.51%; at INSR, 6.62%; on TNK1, 3.07%; on JNK1, -0.29%. The “Percentage inhibition” value is -5.97% on CDK6/CycD3; -19.48% on EPHA8; 6.55% on RON; 7.19% at FER; -0.79% at MINK; 11.58% at WNK2. The “Percentage inhibition” value is 1.53% at PLK1 and -1.11% at IRAK4.

With `C=CC(=O)N1CCC([C@@H]2CCNc3c(C(N)=O)c(-c4ccc(Oc5ccccc5)cc4)nn32)CC1` [zanubrutinib], the “Percentage inhibition” value was 98.58% at HER2, 2.69% at INSR, -2.10% on EPHA8 and 1.42% on FER.
